Our source for the IC50 values is patent publication US7419984B2, “Pyrimidines and uses thereof” (Cell Therapeutics, Inc., priority 2002, dated 2008).

In the experiment the target is T1, human LPAAT-β (Homo sapiens, UniProt O15120).
T1 construct: the full-length human LPAAT-β cDNA was amplified by PCR; poly-histidine tag (N); made in house; host or cells: Sf9 insect cells (baculovirus, pFastBac HTc); the membrane fraction was used as the enzyme
T1 sequence (O15120 24-278): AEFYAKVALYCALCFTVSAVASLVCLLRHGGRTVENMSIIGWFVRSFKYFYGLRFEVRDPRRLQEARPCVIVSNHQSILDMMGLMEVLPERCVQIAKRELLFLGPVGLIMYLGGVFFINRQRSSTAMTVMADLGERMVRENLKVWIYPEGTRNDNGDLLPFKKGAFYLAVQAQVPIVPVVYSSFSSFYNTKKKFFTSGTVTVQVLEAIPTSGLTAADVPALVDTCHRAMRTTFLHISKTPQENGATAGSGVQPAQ
Put plainly: LPAAT-β cell-free assay. Type of experiment: biochemical. Conditions: Sf9 cell membrane overexpressing recombinant LPAAT-β. From the text: For the construction of Baculovirus expression vectors, the full-length human LPAAT-β cDNA was amplified by PCR from the DNA template pCE9.LPAAT-β (West et al., DNA Cell Bid. 16.691-701 (1997)) using the primers 5′-[…] […] […] […]-3′ (olpb1F; SEQ ID NO:1) and 5′-[…] […] […]-3′ (olpb1R; SEQ ID NO:2). The ˜870 bp fragment generated was reamplified by PCR using the primers 5′ […] […] […] […] ATC-3′ (olpb2F; SEQ ID NO:3) and 5′-[…] […] […]-3′ (olpb1R; SEQ ID NO:2). The ˜890 bp fragment generated was then cleaved with Sal I and Xba I for insertion into pFastBac™ HTc vector (Life Technologies, Gaithersberg, M.d.) between the Sal I and Xba I sites for the generation of the plasmid pFB.LPAAT-β. This plasmid was then transformed into E. coli DH10Bac™ (Life Technologies, Gaithersberg, M.d.) for the generation of recombinant Bacmid DNA for transfection in HighFive (Invitrogen, San Diego, Calif.) or SF9 insect cells for the production of recombinant Baculovirus stocks using the protocol described in the Bac-to-Bac® Baculovirus Expression System (Life Technologies, Gaithersberg, M.d.), a eukaryotic expression system for generating recombinant baculovirus through site-specific transposition in E. coli. Viral stocks harvested from the transfected cells can then be used to infect fresh insect cells for the subsequence expression of LPAAT-β fusion protein with a poly-histidine tag and a myc-epitope near its N-terminus. The membrane fraction from these Sf9 cells would be the source of LPAAT enzyme.
For the preparation of membranes from Sf9 Cells, all steps are performed on ice or at 4° C. Sf9 cell pellets (˜10^8 cells) were thawed and resuspended in 1-2 ml of buffer A (20 mM Hepes, pH 7.5, 1 mM DTT, 1 mM EDTA, 20% w/v glycerol, 1 mM Benzamidine, 1 μg/ml soybean trypsin inhibitor (SBTI), 1 μug/ml pepstatin A) w/o DTT but with 1 mM Pefabloc. The cells were lysed by sonication using a Branson Sonifier at output=2, duty cycle=2, 10 pulses each at 10 s. with the tip of small sonicator probe submerged but not touching the walls. DTT was then added to 1 mM from a 1 M stock. The samples were centrifuged at 1500 rpm for 5 min. The low speed supernatant was saved and centrifuged (TLA 100.3 rotor, polycarbonate tubes, 2 ml/tube or 1.5 ml/tube minimum) at 100000×g for 1 hr. The high speed pellet was resuspend in Buffer A with a probe sonicator (10 pulses @ output #2 and duty cycle 20%) as a source of LPAAT enzyme.
LPAAT-β catalyzes the transfer of an acyl group from a donor such as acyl-CoA to LPA. The transfer of the acyl group from acyl-CoA to LPA leads to the release of free CoA, which can be reacted with the thiol reagent, 5,5′-dithiobis(2-nitrobenzoic acid) (DTNB). The reaction between DTNB and the free sulfhydryl group from CoA generates a yellow-colored product, 3-carboxylato-4-nitrothiophenolate (CNP), that absorbs at 413 nm. LPAAT-β derived from Sf9 cell membrane overexpressing LPAAT-β were resuspended in HEPES saline buffer (20 mM HEPES pH 7.5, 150 mM NaCl), 1 mg/ml BSA and 72 μl aliquots were distributed into 96-well microtiter plates. 8 μl of compound of interest at 200 μM dissolved in 100% DMSO was added into each well. […] of 1 mM 18:1-CoA and 1 mM sn-1-18:1 lysoPA was then added to each well to initiate the reaction and allowed to run at room temperature for 25 min. 100 μl of 1 mM DTNB in 100% ethanol was then added to each well to quench the reaction and for color development. The absorbance at 405 nm, measured using a spectrophotometer plate reader, is proportional to the activity of LPAAT-2 in the sample. This colorimetric assay was used for the high throughput screening of LPAAT inhibitors.
The radiometric assay was carried out in Sf9 cell membrane overexpressing LPAAT-β resuspended in HEPES-saline buffer, pH 7.5, 1 mg/ml BSA, 1 mM EDTA and 200 μM [^14C]18:1-CoA and 200 μM sn-1-18:1 lysoPA.
Take `CCOc1ccc(Cl)cc1-c1cc(Nc2ccc(OC)cc2)nc(N)n1` [Example 58, 6-(5-Chloro-2-ethoxy-phenyl)-N*4*-(4-methoxy-phenyl)-pyrimidine-2,4-diamine]: the IC50 was 200 nM.
For `CCOc1ccc(Br)cc1-c1cc(Nc2ccc(C(=O)c3ccccc3)cc2)nc(N)n1` [Example 59, {4-[2-Amino-6-(5-bromo-2-ethoxy-phenyl)-pyrimidin4-ylamino]-phenyl}-phenyl-methanone] the value was 210 nM; for `CCOc1ccc(Br)cc1-c1cc(Nc2ccc(C(F)(F)F)cc2)nc(N)n1` [Example 60, 6-(5-Bromo-2-ethoxy-phenyl)-N*4*-(4-trifuoromethyl-phenyl)-pyrimidin-2,4-diamine], 60 nM.
`CCOc1ccc(Br)cc1-c1cc(Nc2ccc(C(=O)OC)cc2)nc(N)n1` [Example 61, 4-[2-Amino-6-(5-bromo-2-ethoxy-phenyl)-pyrimidin-4-ylamino]-benzoic acid methyl ester]: the concentration for half-maximal inhibition (IC50) stood at 350 nM.
For `CCOc1ccc(Br)cc1-c1cc(Nc2ccc(CO)cc2)nc(N)n1` [Example 62, {4-[2-Amino-6-(5-bromo-2-ethoxy-phenyl)-pyrimidin4-ylamino]-phenyl}-methanol] the value was 80 nM; for `CCOc1ccc(Cl)cc1-c1cc(Nc2ccc(COC(=O)CCC(=O)O)cc2)nc(N)n1` [Example 63, Succinic acid mono-{4-[2-amino-6-(5-chloro-2-ethoxy-phenyl)-pyrimidin-4-ylamino]-benzyl}-ester], 83 nM; for `CCOc1ccc(Cl)cc1-c1cc(Nc2ccc(COC(=O)CN)cc2)nc(N)n1` [Example 64, Amino acetic acid-4-[2-amino-6-(5-chloro-2-ethoxy-phenyl)-pyrimidin-4-ylamino]-benzyl ester], 1500 nM.
On to `CCOc1ccc(Cl)cc1-c1cc(Nc2ccc(CO)cc2)nc(NC)n1` [Example 65, {4-[6-(5-Chloro-2-ethoxy-phenyl)-2-methylamino-pyrimidin4-ylamino]-phenyl}-methanol], for which the concentration for half-maximal inhibition (IC50) was determined as 140 nM.
For `CCOc1ccc(Cl)cc1-c1cc(Nc2ccc(-c3cnco3)cc2)nc(N)n1` [Example 66, 6-(5-Chloro-2-ethoxy-phenyl)-N*4*-(4-oxazol-5-yl-phenyl)-pyrimidine-2,4-diamine] the value was 450 nM.
In the case of `CCOc1ccc(Br)cc1-c1cc(Nc2ccc(CCO)cc2)nc(N)n1` [Example 70, 2-{4-[2-Amino-6-(5-bromo-2-ethoxy-phenyl)-pyrimidin-4-ylamino]-phenyl}-ethanol], the IC50 turned out to be 29 nM.
For `COc1ccc(C)c(-c2cc(Nc3ccc(Cl)cc3)nc(N)n2)c1` [Example 71, N*4*-(4-Chloro-phenyl)-6-(5-methoxy-2-methyl-phenyl)-pyrimidine-2,4-diamine] the value was 210 nM.
`Nc1nc(Nc2ccc(Cl)cc2)cc(-c2cc(Br)ccc2O)n1` [Example 72, 2-[2-Amino-6-(4-chloro-phenylamino)-pyrimidin-4-yl]-4-bromo-phenol]: the IC50 came out at 450 nM.
As for `Cc1ccc(C)c(-c2cc(Nc3ccc(Cl)cc3)nc(N)n2)c1` [Example 73, N*4*-(4-Chloro-phenyl)-6-(2,5-dimethyl-phenyl)-pyrimidine-2,4-diamine], the IC50 is 160 nM.
For the compound `Cc1ccc(C)c(-c2cc(Nc3ccc(CCO)cc3)nc(N)n2)c1` [Example 74, 2-{4-[2-Amino-6-(2,5-dimethyl-phenyl)-pyrimidin-4-ylamino]-phenyl}-ethanol], the IC50 turned out to be 550 nM.
As for `CNC(=O)c1cc(Nc2cc(-c3cc(Br)ccc3C)nc(N)n2)ccc1Cl` [Example 75, 5-[2-Amino-6-(5-bromo-2-methyl-phenyl)-pyrimidin-4-ylamino]-2-chloro-N-methyl-benzamide], the IC50 amounted to 180 nM.
For `Cc1ccc(F)cc1-c1cc(Nc2ccc(C(F)(F)F)cc2)nc(N)n1` [Example 76, 6-(5-Fluoro-2-methyl-phenyl)-N*4*-(4-trifluoromethyl-phenyl)-pyrimidine-2,4-diamine], the IC50 was 710 nM.
Take `CNC(=O)c1cc(Nc2cc(-c3cc(Cl)ccc3C)nc(N)n2)ccc1Br` [Example 77, 5-[2-Amino-6-(5-chloro-2-methyl-phenyl)-pyrimidin4-ylamino]-2-bromo-N-methyl-benzamide]: the IC50 was 370 nM.
For the compound `CNC(=O)c1cc(Nc2cc(-c3cc(Br)ccc3C)nc(N)n2)ccc1Br` [Example 78, 5-[2-Amino-6-(5-bromo-2-methyl-phenyl)-pyrimidin-4-ylamino]-2-bromo-N-methyl-benzamide], the concentration for half-maximal inhibition (IC50) was determined as 210 nM.
For the compound `Cc1ccc(Cl)cc1-c1cc(Nc2ccc3c(c2)C(=O)NC3=O)nc(N)n1` [Example 79, 5-[2-Amino-6-(5-chloro-2-methyl-phenyl)-pyrimidin4-ylamino]-isoindole-1,3-dione], the IC50 stood at 900 nM.
As to `Cc1ccc(Br)cc1-c1cc(Nc2ccc(N=[N+]=[N-])cc2)nc(N)n1` [Example 81, [6-(5-Bromo-2-methyl-phenyl)-(4-azido-phenyl)-pyrimidine]-2,4-diamine], the IC50 was found to be 190 nM.
For the compound `Cc1ccc(Br)cc1-c1cc(Nc2ccc(C(F)(F)F)cc2)nc(N)n1` [Example 82, 6-(S-Bromo-2-methyl-phenyl)-N*4*-(4-trifluoromethyl-phenyl)-pyrimidine-2,4-diamine], the IC50 worked out at 100 nM.
With `Cc1ccc(Br)cc1-c1cc(Nc2ccc(Cl)cc2)nc(N)n1` [Example 84, 6-(5-Bromo-2-methyl-phenyl)-N*4*-(4-chloro-phenyl)-pyrimidine-2,4-diamine], the IC50 was found to be 31 nM.
As for `Cc1ccc(Br)cc1-c1cc(Nc2ccc(Br)cc2)nc(N)n1` [Example 85, 6-(5-Bromo-2-methyl-phenyl)-N*4*-(4-bromo-phenyl)-pyrimidine-2,4-diamine], the IC50 was 18 nM.
In the case of `Cc1ccc(Br)cc1-c1cc(Nc2ccc(C#N)cc2)nc(N)n1` [Example 86, 4-[2-Amino-6-(5-bromo-2-methyl-phenyl)-pyrimidin-4-ylamino]-benzonitrile], the concentration for half-maximal inhibition (IC50) came out at 40 nM.
For `Cc1ccc(Br)cc1-c1cc(Nc2ccc([N+](=O)[O-])cc2)nc(N)n1` [Example 88, 6-(5-Bromo-2-methyl-phenyl)-N*4*-(4-nitro-phenyl)-pyrimidine-2,4-diamine], the IC50 is 21 nM.
Regarding `Nc1nc(Nc2ccc(Cl)cc2)cc(-c2cc(Cl)ccc2OCC(F)(F)F)n1` [Example 89, N*4*-(4-Chloro-phenyl)-6-[5-chloro-2-(2,2,2-trifluoro-ethoxy)-phenyl]-pyrimidine-2,4-diamine], the IC50 stood at 100 nM.
For `CCOc1ccc(Cl)cc1-c1cc(Nc2ccc(OCCO)cc2)nc(N)n1` [Example 90, 2-{4-[2-Amino-6-(5-chloro-2-ethoxy-phenyl)-pyrimidin-4-ylamino]-phenoxy}-ethanol] the value was 780 nM.
